For 27 compounds, IC50 results are on record in patent US11111238B2, “Coumarin derivatives, processes for their preparation and uses thereof for the treatment of cancer” (Lead Discovery Center GmbH, priority 2017, dated 2021).

Assay [1] deals with mitochondrial transcription (7S RNA) in HeLa cells. Kind of assay: Quantitative real time-PCR assay of inhibition of mitochondrial transcription (cellular qPCR assay IMT). It is filed as cell-based. The note with it: Homo sapiens, 4 h compound incubation, qRT-PCR according to Example 5, activity class. Here is the method: Quantitative real-time PCR (qRT-PCR), based on the TagMan™ (Thermo Fisher Scientific, Waltham Mass.) technology, was carried out essentially as described in (Heid et al., 1996). HeLa cells were plated one day before compound treatment in RPMI medium supplemented with 10% Fetal Calf Serum and 2 mM L-glutamine. Cells were incubated with dilution series of compounds or vehicle (DMSO) for 4 h, prior to harvest and extraction of the RNA using the RNeasy Mini Kit (Qiagen, Hilden D), according to the manufacturer's instructions. RNA concentrations were measured spectroscopically, using a NanoDrop-2000 (Thermo Fisher Scientific, Waltham Mass.) and normalized prior to cDNA synthesis, using a ‘High-Capacity cDNA Reverse Transcription Kit’ (Thermo Fisher Scientific, Waltham Mass.). qRT-PCR was carried out using the ‘TaqMan Fast Advance Master Mix’ (Thermo Fisher Scientific, Waltham Mass.) on a 7500 Fast Real-Time PCR machine (Applied Biosystems, Foster City Calif.)
For these measurements, three genes were used to compare the effect of the scrutinized compounds in relation to their concentration. The POLRMT-gene was used to detect potential influences on nuclear transcription. Mitochondrial transcription in vivo was monitored by measurements 7S RNA. The TBP (TATA-box binding protein) gene was employed as the control (housekeeping gene) during qRT-PCR. The short-lived mitochondrial 7S RNA, which is not post-transcriptionally stabilized, allowed us to monitor rapid changes in mitochondrial transcription activity following compound addition. Biological triplicates were analyzed using the comparative CT Method (ΔΔCt) method (Bubner and Baldwin, 2004) and reported as Rq % values (Rq=Relative quantification=2-ΔΔCt).
(In general: Quantitative PCR measures a nucleic acid by following its amplification.)

The target in assay [2] is mitochondrial RNA-polymerase (POLRMT) (Mus musculus, UniProt Q8BKF1). Description: Homogeneous TR-FRET assay for mitochondrial transcription activity. It counts as biochemical. The following applies: homogeneous TR-FRET assay according to Example 4; activity class. The essentials:
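Mouse POLRMT, TFAM and TFB2M with linearized pUC-LSP template in 10 mM Tris-HCl pH 7.5, 10 mM MgCl2, 40 mM NaCl; compounds at 10 μM or serial dilution, 10 min RT preincubation. Started with 500 μM each […], 2 h RT; 407 bp RNA product detected by hybridized Eu-cryptate/ATTO647N probe TR-FRET (ex 340, em 665 nm).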
In general terms: Time-resolved FRET reads energy transfer from a long-lived donor to a nearby acceptor.

Usually IC50 stands for the midpoint of a concentration-inhibition curve.

Chain of mitochondrial RNA-polymerase (POLRMT) (Q8BKF1 42-1207): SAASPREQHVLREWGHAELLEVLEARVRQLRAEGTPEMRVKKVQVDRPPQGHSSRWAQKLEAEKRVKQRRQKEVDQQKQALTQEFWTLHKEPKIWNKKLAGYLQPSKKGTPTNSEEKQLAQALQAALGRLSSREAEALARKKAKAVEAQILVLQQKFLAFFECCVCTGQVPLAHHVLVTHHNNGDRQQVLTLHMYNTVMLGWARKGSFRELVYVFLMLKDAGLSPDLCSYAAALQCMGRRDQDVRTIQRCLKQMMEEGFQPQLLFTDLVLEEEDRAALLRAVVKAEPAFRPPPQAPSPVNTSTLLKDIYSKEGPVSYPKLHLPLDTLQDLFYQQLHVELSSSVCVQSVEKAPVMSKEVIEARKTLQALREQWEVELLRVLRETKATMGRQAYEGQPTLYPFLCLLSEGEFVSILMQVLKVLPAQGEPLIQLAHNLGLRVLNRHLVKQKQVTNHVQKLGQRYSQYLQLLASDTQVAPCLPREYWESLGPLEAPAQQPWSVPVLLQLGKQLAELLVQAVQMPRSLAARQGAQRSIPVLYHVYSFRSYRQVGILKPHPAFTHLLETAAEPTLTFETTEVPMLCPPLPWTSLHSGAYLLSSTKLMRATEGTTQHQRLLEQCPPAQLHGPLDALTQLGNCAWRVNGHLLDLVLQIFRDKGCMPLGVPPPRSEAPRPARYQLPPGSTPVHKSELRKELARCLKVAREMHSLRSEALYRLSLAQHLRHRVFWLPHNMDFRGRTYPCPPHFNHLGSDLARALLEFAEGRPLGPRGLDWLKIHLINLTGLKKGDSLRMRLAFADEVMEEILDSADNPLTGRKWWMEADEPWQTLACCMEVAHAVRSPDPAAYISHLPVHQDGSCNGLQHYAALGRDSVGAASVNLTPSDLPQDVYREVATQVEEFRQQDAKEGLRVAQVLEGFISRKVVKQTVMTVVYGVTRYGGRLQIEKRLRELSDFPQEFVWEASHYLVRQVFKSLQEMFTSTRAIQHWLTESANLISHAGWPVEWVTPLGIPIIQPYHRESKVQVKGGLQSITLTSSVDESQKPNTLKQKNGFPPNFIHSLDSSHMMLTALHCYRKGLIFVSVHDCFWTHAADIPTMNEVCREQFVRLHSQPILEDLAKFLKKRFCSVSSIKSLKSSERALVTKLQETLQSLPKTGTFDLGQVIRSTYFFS

In the case of `C[C@@H](Oc1ccc2c(-c3ccc(F)cc3Cl)cc(=O)oc2c1)C(=O)N1CCN(C)C(C(=O)O)C1` (mixture of isomers) [Compound 161, 1-methyl-4-[rac-(2R)-2-[4-(2-chloro-4-fluoro-phenyl)-2-oxo-chromen-7-yl]oxypropanoyl]piperazine-2-carboxylic acid], the IC50 in assay [1] lay within 500 to 5000 nM; in assay [2] it was 100 to 1000 nM.
Turning to `CC(Oc1ccc2c(-c3ccccc3Cl)cc(=O)oc2n1)C(=O)N1CCC[C@H](C(=O)O)C1` (mixture of isomers) [Compound 170, rac-(3S)-1-[2-[4-(2-chlorophenyl)-2-oxo-pyrano[2,3-b]pyridin-7-yl]oxypropanoyl]piperidine-3-carboxylic acid], the IC50 in assay [1] was 50 to 500 nM; in assay [2] it was 20 to 100 nM.
Consider `Cc1ccccc1-c1cc(=O)oc2cc(OC(C)C(=O)N3CCCCC3)ccc12` (stereo not drawn) [Compound 1, 7-[1-methyl-2-oxo-2-(1-piperidyl)ethoxy]-4-(o-tolyl)chromen-2-one], for which the IC50 in assay [1] is less than 10 nM; in assay [2] it was less than 20 nM.
On to `CC(Oc1ccc2c(-c3ccccc3Cl)cc(=O)oc2c1)C(=O)N1CCCCC1` (stereo not drawn) [Compound 2, 4-(2-chlorophenyl)-7-[1-methyl-2-oxo-2-(1-piperidyl)ethoxy]chromen-2-one], for which the IC50 was less than 10 nM in assay [1] and less than 20 nM in assay [2].
`Cc1ccccc1-c1cc(=O)oc2cc(OC(C)C(=O)N3CCCC(C(=O)O)C3)ccc12` (stereo not drawn) [Compound 8, 1-[2-[4-(o-tolyl)-2-oxo-chromen-7-yl]oxypropanoyl]piperidine-3-carboxylic acid]: the IC50 in assay [1] was less than 10 nM; in assay [2] it was less than 20 nM.
In the case of `CC(Oc1ccc2c(-c3ccccc3Cl)cc(=O)oc2c1)C(=O)N1CCCC(C(=O)O)C1` (stereo not drawn) [Compound 9, 1-[2-[4-(2-chlorophenyl)-2-oxo-chromen-7-yl]oxypropanoyl]piperidine-3-carboxylic acid], the IC50 in assay [1] was less than 10 nM; in assay [2], less than 20 nM.
In the same order, the values of `Cc1ccccc1-c1cc(=O)oc2cc(OC(C)C(=O)N3CCCC(S(N)(=O)=O)C3)ccc12` (stereo not drawn) [Compound 12, 1-[2-[4-(o-tolyl)-2-oxo-chromen-7-yl]oxypropanoyl]piperidine-3-sulfonamide] are less than 10 nM and less than 20 nM.
On to `CNC(=O)C1CCCN(C(=O)C(C)Oc2ccc3c(-c4ccccc4Cl)cc(=O)oc3c2)C1` (stereo not drawn) [Compound 15, 1-[2-[4-(2-chlorophenyl)-2-oxo-chromen-7-yl]oxypropanoyl]-N-methyl-piperidine-3-carboxamide], for which the IC50 was less than 10 nM in assay [1] and less than 20 nM in assay [2].
For `CNS(=O)(=O)C1CCCN(C(=O)C(C)Oc2ccc3c(-c4ccccc4C)cc(=O)oc3c2)C1` (stereo not drawn) [Compound 18, N-methyl-1-[2-[4-(o-tolyl)-2-oxo-chromen-7-yl]oxypropanoyl]piperidine-3-sulfonamide], the results for the IC50 in assay [1] and in assay [2] were less than 10 nM and less than 20 nM, respectively.
Regarding `CNC(=O)C1CCCN(C(=O)C(C)Oc2ccc3c(-c4ccccc4C)cc(=O)oc3c2)C1` (stereo not drawn) [Compound 21, N-methyl-1-[2-[4-(o-tolyl)-2-oxo-chromen-7-yl]oxypropanoyl]piperidine-3-carboxamide], the results for the IC50 in assay [1] and in assay [2] were less than 10 nM and less than 20 nM, respectively.
For `C[C@@H](Oc1ccc2c(-c3ccccc3Cl)cc(=O)oc2c1)C(=O)N1CCC[C@H](C(=O)O)C1` [Compound 23, (3S)-1-[(2R)-2-[4-(2-chlorophenyl)-2-oxo-chromen-7-yl]oxypropanoyl]piperidine-3-carboxylic acid], the IC50 in assay [1] is less than 10 nM; in assay [2] it was less than 20 nM.
Regarding `CC(Oc1ccc2c(-c3ccccc3Cl)cc(=O)oc2c1)C(=O)N1CCCC(S(N)(=O)=O)C1` (stereo not drawn) [Compound 24, 1-[2-[4-(2-chlorophenyl)-2-oxo-chromen-7-yl]oxypropanoyl]piperidine-3-sulfonamide], the figures for the IC50 in assay [1] and in assay [2] were less than 10 nM and less than 20 nM, respectively.
`C[C@@H](Oc1ccc2c(-c3ccc(F)cc3Cl)cc(=O)oc2c1)C(=O)N1CCC[C@H](C(=O)OCCN2CCOCC2)C1` [Compound 119, 2-morpholinoethyl (3S)-1-[(2R)-2-[4-(2-chloro-4-fluoro-phenyl)-2-oxo-chromen-7-yl]oxypropanoyl]piperidine-3-carboxylate] displayed an IC50 in assay [1] of less than 10 nM.
In assay [2], `COC(=O)c1ccnc(NC(=O)[C@@H](C)Oc2ccc3c(-c4ccc(F)cc4Cl)cc(=O)oc3c2)c1` [Compound 146, methyl 2-[[(2R)-2-[4-(2-chloro-4-fluoro-phenyl)-2-oxo-chromen-7-yl]oxypropanoyl]amino]pyridine-4-carboxylate] came in with an IC50 of 100 to 1000 nM.
In assay [2], `C[C@@H](Oc1ccc2c(-c3ccc(F)cc3Cl)cc(=O)oc2c1)C(=O)Nc1cncc(C(=O)O)c1` [Compound 148, 5-[[(2R)-2-[4-(2-chloro-4-fluoro-phenyl)-2-oxo-chromen-7-yl]oxypropanoyl]amino]pyridine-3-carboxylic acid] had an IC50 of less than 20 nM.
Turning to `C[C@@H](Oc1ccc2c(-c3ccc(F)cc3Cl)cc(=O)oc2c1)C(=O)N1CCN[C@@H](C(=O)O)C1` [Compound 150, (2R)-4-[(2R)-2-[4-(2-chloro-4-fluoro-phenyl)-2-oxo-chromen-7-yl]oxypropanoyl]piperazine-2-carboxylic acid], the IC50 in assay [2] was in the range of 20 to 100 nM.
`C[C@@H](Oc1ccc2c(-c3ccc(F)cc3Cl)cc(=O)oc2c1)C(=O)Nc1cccc(C(=O)O)n1` [Compound 151, 6-[[(2R)-2-[4-(2-chloro-4-fluoro-phenyl)-2-oxo-chromen-7-yl]oxypropanoyl]amino]pyridine-2-carboxylic acid] showed an IC50 in assay [2] of less than 20 nM.
Compound `COC(=O)c1ccc(NC(=O)[C@@H](C)Oc2ccc3c(-c4ccc(F)cc4Cl)cc(=O)oc3c2)cn1` [Compound 153, methyl 5-[[(2R)-2-[4-(2-chloro-4-fluoro-phenyl)-2-oxo-chromen-7-yl]oxypropanoyl]amino]pyridine-2-carboxylate] came in with an IC50 in assay [2] of 20 to 100 nM.
For `C[C@@H](Oc1ccc2c(-c3ccc(F)cc3Cl)cc(=O)oc2c1)C(=O)Nc1ccc(C(=O)O)nc1` [Compound 154, 5-[[(2R)-2-[4-(2-chloro-4-fluoro-phenyl)-2-oxo-chromen-7-yl]oxypropanoyl]amino]pyridine-2-carboxylic acid], in assay [2], the IC50 was less than 20 nM.
Consider `COC(=O)c1cc(NC(=O)[C@@H](C)Oc2ccc3c(-c4ccc(F)cc4Cl)cc(=O)oc3c2)ccn1` [Compound 156, methyl 4-[[(2R)-2-[4-(2-chloro-4-fluoro-phenyl)-2-oxo-chromen-7-yl]oxypropanoyl]amino]pyridine-2-carboxylate], for which the IC50 in assay [2] was 20 to 100 nM.
Compound `COC(=O)[C@H]1CCN(C(=O)[C@@H](C)Oc2ccc3c(-c4ccc(F)cc4Cl)cc(=O)oc3c2)C1` [Compound 157, methyl (3S)-1-[(2R)-2-[4-(2-chloro-4-fluoro-phenyl)-2-oxo-chromen-7-yl]oxypropanoyl]pyrrolidine-3-carboxylate] came in with an IC50 in assay [2] of 20 to 100 nM.
`Cc1cc(F)ccc1-c1cc(=O)oc2cc(O[C@H](C)C(=O)N3CCC[C@H](C(=O)O)C3)ccc12` [Compound 158, (3S)-1-[(2R)-2-[4-(4-fluoro-2-methyl-phenyl)-2-oxo-chromen-7-yl]oxypropanoyl]piperidine-3-carboxylic acid] registered an IC50 in assay [2] of less than 20 nM.
The same measure, in the same setting: with `C[C@@H](Oc1ccc2c(-c3ccc(F)cc3Cl)cc(=O)oc2c1)C(=O)Nc1ccnc(C(=O)O)c1` [Compound 160, 4-[[(2R)-2-[4-(2-chloro-4-fluoro-phenyl)-2-oxo-chromen-7-yl]oxypropanoyl]amino]pyridine-2-carboxylic acid] the figure was less than 20 nM; with `C[C@@H](Oc1ccc2c(-c3ccccc3C#N)cc(=O)oc2c1)C(=O)N1CCC[C@H](C(=O)O)C1` [Compound 162, (3S)-1-[(2R)-2-[4-(2-cyanophenyl)-2-oxo-chromen-7-yl]oxypropanoyl]piperidine-3-carboxylic acid], 20 to 100 nM; with `C[C@@H](Oc1ccc2c(-c3c(Cl)cccc3Cl)cc(=O)oc2c1)C(=O)N1CCC[C@H](C(=O)O)C1` [Compound 163, (3S)-1-[(2R)-2-[4-(2,6-dichlorophenyl)-2-oxo-chromen-7-yl]oxypropanoyl]piperidine-3-carboxylic acid], 100 to 1000 nM.
Compound `CCOC(=O)C(C)Oc1ccc2c(-c3ccccc3F)cc(=O)oc2c1` (stereo not drawn) [Compound 175, ethyl 2-[4-(2-fluorophenyl)-2-oxo-chromen-7-yl]oxypropanoate] yielded an IC50 in assay [2] of 100 to 1000 nM.
`CCOC(=O)C(C)Oc1ccc2c(-c3c(F)cccc3F)cc(=O)oc2c1` (stereo not drawn) [Compound 176, ethyl 2-[4-(2,6-difluorophenyl)-2-oxo-chromen-7-yl]oxypropanoate] gave an IC50 in assay [2] of 1000 to 5000 nM.
